US20100159030A1, “METHODS FOR DETECTING AND MODULATING THE SENSITIVITY OF TUMOR CELLS TO ANTI-MITOTIC AGENTS AND FOR MODULATING TURMORGENICITY” (NewSouth Innovations Pty Limited, priority 2007, published 2010)
Like-named read-outs stand apart in the source and are kept apart here.

Key:
H460 cells = test: Cell cycle analysis by flow cytometry (propidium iodide); assay type: cell-based, Human; details: 24 h
Description: The distribution of DNA content in βII or βIVb tubulin siRNA-transfected H460 cells was determined by flow cytometry. After 72 h transfection, transfected cells were exposed to vincristine at 5 nM or 40 nM concentrations for 24 h. On the day of analysis, both adherent and floating cells were harvested, washed with PBS and then stained with a solution containing 0.4% Triton® X-100 (Sigma), 50 μg/ml propidium iodide (Sigma), and 2 μg/ml DNase-free RNase (Roche, Indianapolis, Ind.) in the dark for 15 min at 37′C. DNA content was measured by a FACSCalibur flow cytometer (Becton Dickinson, San Diego, Calif.). The flow rate was <200 nuclei per second and 10,000 cells from each sample were analysed. Measurements were performed under the same instrumental settings. The CellQuest® program was used to quantitate the distribution of cells in each cell cycle phase: sub-G1 (apoptotic cells), G1, S and G2/M.
To determine whether βIII-tubulin silencing affects the cell cycle profiles, cell cycle analysis using flow cytometry was performed. Cell cycle analysis was determined by transfecting H460 cells with siRNA for 72 h and harvesting (adherent and suspension) cells 24 h after drug treatment. DNA content was stained for 15 min at 37° C. with a solution containing 0.4% Triton® X-100 (Sigma-Aldrich), 50 μg/ml propidium iodide (Sigma-Aldrich), and 2 μg/ml DNAse-free RNAse (Roche, Indianapolis, Ind.). The cells were then analyzed for cell cycle perturbation using a FACSCalibur (Becton-Dickinson, Franklin Lakes, N.J.). The CellQuest® program was used to quantitate the distribution of cells in each cell cycle phase: sub-G1(apoptotic cells), G1, S and G2/M.

Calu-6 cells [1] = test: Drug-treated clonogenic assay on siRNA-transfected cells; assay type: cell-based, Human
Description: (§1) Cells were transfected for 24 h and approximately 600 cells (for Calu-6) or 150 cells (for H460) were seeded into each well of a 6-well plate and allowed to attach for 4-6 h. The cell lines used in this study were not subject to prior drug selection, and are likely to represent intrinsic drug resistance observed in lung carcinoma.
(§2) Cells were then treated with increasing concentrations of various anti-mitotic drugs. Following a 3-day incubation at 37° C., the drug-containing medium was removed and replaced with fresh complete medium. Medium was changed at 3-4 day intervals for 7 to 10 days until visible colonies formed. […] Surviving colonies were simultaneously fixed and stained with 0.5% crystal violet in methanol, rinsed with water to remove excess stain and air-dried overnight.
(§3) The colonies in each well were manually counted, and the results were presented as surviving fraction according to the formula: surviving fraction was calculated as follows: colony number/(number of cells seeded×plating efficiency), where plating efficiency is equivalent to the colony number divided by the number of cells seeded in the drug-free medium. Dose-response curves were plotted for each drug-cell line combination and inhibitory dose (ID50) values were extrapolated from this curve using GraphPad Prism program (GraphPad Software, version 4, San Diego, Calif.). ID50 was defined as the concentration of the drug required to reduce the number of colonies in drug-treated wells to 50% of that of the relevant untreated control wells. The ID50 values were the means of at least four independent experiments.
(§4) To quantitate any change in drug sensitivity, drug treated clonogenic assays were performed. Twenty-four hours after siRNA transfection, cells were harvested and plated into 6-well plates for 6 h, prior to the addition of various drugs as indicated in the figure legends. After 72 h incubation, the drug-containing media was removed and replaced with complete growth media. Medium was changed every 3 days for 7 to 10 days until visible colonies formed. Colonies were simultaneously fixed and stained with 0.5% crystal violet in methanol, and manually counted. Individual stained colonies in each well were counted and the surviving fraction was calculated as follows: colony number/(number of cells seeded×plating efficiency), where plating efficiency equals the colony number divided by the number of cells seeded in drug-free media.

Calu-6 cells [2] = test: Immunofluorescent staining of microtubules (α-tubulin) after drug treatment; assay type: cell-based, Human; details: 1 h, vs control
Description: Transfected Calu-6 cells were grown on sterile chamber slides until 60-70% confluent. Cells were then treated with paclitaxel and vincristine for 1 h at 10 nM. Cells were fixed in methanol and processed for staining as previously described (Don et al. (2004) supra) with minor modifications. Fixed cells were stained with α-tubulin (1:400 in 5% FCS/PBS, Sigma) for 30 min followed by Cy2 anti-mouse fluorescent tagged antibody (1:1,000 in 5% FCS/PBS, GE Healthcare). Slides were mounted on a coverslip using DAPI II Counterstain (Vysis Inc., Downers Grove, Ill.). Slides were viewed using a Zeiss Axioplan 2 Immunofluorescence Microscope (Mannheim, Germany) with Image-Pro® Plus 4.1 software (Media Cybernetics, L.P., Silver Spring, Md.).
To assess the effects of βIII downregulation on microtubule organization, immunofluorescence staining was performed on transfected Calu-6 cells as follows. Briefly, siRNA transfected cells were plated in glass chamber slides and allowed to reach 70% confluence. Cells were then treated with 10 nM of paclitaxel or vincristine for 1 hour. Drug was then removed by washing cells with PBS and blocked in 10% FCS/PBS. For dual staining, cells were first labelled with an antibody to class III β-tubulin which was exposed to cells incubated at 37° C. for 30 minutes in a humidified chamber. Following washes in 0.1% Tween 20/PBS at room temperature, the slides were incubated with Cy3 anti-mouse fluorescent-tagged antibody (GE Healthcare) for 40 minutes in a humidified chamber in the dark at room temperature. Following incubation, the slides were washed again in 0.1% Tween 20/PBS. This was then followed by staining with α-tubulin and Cy2 anti-mouse fluorescent tagged antibody (GE Healthcare). Slides were mounted on a coverslip using DAPI II Counterstain (Vysis Inc., Downers Grove, Ill.). Immunofluorescence microscopy was performed and images were captured using a Sensicam Charged Coupled Device camera (PCO Imaging, Kelheim, Bavaria, Germany) and the Image-Pro® Plus 4.1 software (Media Cybernetics, L.P., Silver Spring, Md.).

CCRF-CEM Leukaemia cells = assay type: cell-based; details: lowest resistant subline CEM/2ME2-3.6R only
Description: The tubulin-binding agent 2-methoxyestradiol (2ME2) binds to β-tubulin near the colchicine-binding site, inhibits microtubule polymerization, and induces mitotic arrest. CCRF-CEM Leukaemia cells that display increasing resistance to 2ME2 were selected, and four of the highly 2ME2 resistant leukaemia sublines were chosen for detailed analysis.

NSCLC H460 cells = test: Drug-treated clonogenic assay (surviving fraction, ID50) on siRNA/shRNA-transfected cells; assay type: cell-based, Human; details: for IC50: Homo sapiens, NCI-H460, Table 2, read-out: ID50 ± SEM; for RS (relative sensitivity): Table 2; for change in drug sensitivity (clonogenic survival): H460
Description: as §1, §2, §3, §4

[3] = class II β-tubulin siRNA knockdown vs controls
[4] = class IVb β-tubulin siRNA knockdown vs controls
[5] = 27-mer βIII siRNA Sequence-8 H460 cells
[6] = 27-mer βIII siRNA Sequence-11 H460 cells

`CC[C@]1(O)C[C@H]2CN(CCc3c([nH]c4ccccc34)[C@@](C(=O)OC)(c3cc4c(cc3OC)N(C=O)[C@H]3[C@@](O)(C(=O)OC)[C@H](OC(C)=O)[C@]5(CC)C=CCN6CC[C@]43[C@@H]65)C2)C1` [VCR, vincristine] was tested, and the cell cycle profile (H460 cells; βII siRNA transfectants, 5 nM) was “increase in the G2/M and sub-G1 populations”, the cell cycle profile (H460 cells; βII siRNA transfectants, 40 nM) was “greater G2/M accumulation” and the cell cycle profile (H460 cells; βIVb siRNA transfectants, 5 nM) was “increase in the G2/M and sub-G1 populations”. The cell cycle profile (H460 cells; βIVb siRNA transfectants, 40 nM) was “failed to undergo G2/M arrest”, the “change in drug sensitivity (clonogenic survival)” value (shortened to “change in drug sensitivity”) (Calu-6 cells [1]; [3]) was “significantly sensitized” and the “change in drug sensitivity” value (Calu-6 cells [1]; [4]) was “hypersensitive”. For the same compound, the microtubule morphology (Calu-6 cells [2]; βII siRNA-transfected Calu-6, 10 nM drug) was “dramatic disruption of the microtubule cytoskeleton”, the microtubule morphology (Calu-6 cells [2]; βIII siRNA-transfected Calu-6, 10 nM drug) was “extensive disruption of the microtubule cytoskeleton” and the microtubule morphology (Calu-6 cells [2]; βIVb siRNA-transfected Calu-6, 10 nM drug) was “dramatic disruption of the microtubule cytoskeleton”. The cross-resistance (CCRF-CEM Leukaemia cells) was “cross-resistance”, the IC50 (NSCLC H460 cells; [5]) was 1.68 ± 0.116 nM and the IC50 (NSCLC H460 cells; [6]) was 2.95 ± 0.175 nM. The IC50 (NSCLC H460 cells; Ctrl-1 (27-mer control siRNA) H460 cells) was 4.25 ± 0.18 nM, the IC50 (NSCLC H460 cells; mock-transfected H460 cells) was 3.99 ± 0.158 nM and the “RS (relative sensitivity)” value (NSCLC H460 cells; [5]) was “(2.37, <0.0001***)”. The “RS (relative sensitivity)” value (NSCLC H460 cells; [6]) was “(1.34, 0.001**)”, the “RS (relative sensitivity)” value (NSCLC H460 cells; Ctrl-1 H460 cells) was “(0.94, NS)” and the “change in drug sensitivity” value (NSCLC H460 cells; [3]) was “significantly sensitized”. The “change in drug sensitivity” value (NSCLC H460 cells; [4]) was “precipitous drop in surviving colonies” and the “change in drug sensitivity” value (NSCLC H460 cells; βIII-tubulin siRNA silencing vs controls) was “significant increase in sensitivity”.
